Results taken from PMC5933782, “Molecular structures of cdc2-like kinases in complex with a new inhibitor chemotype” (PLoS ONE, 2018).

Key:
Test in all cases: radiometric protein kinase assay
CDK5/p25 = molecular target: T1, CDK5/p25 (Homo sapiens, UniProt Q00535); format: biochemical; settings: for IC50: 15 μmol/L ATP; for Residual enzyme activity CDK5/p25: 10 µM concentration, ± SEM
T1 construct: made in house

CLK1 = CLK1 (Mus musculus, UniProt P22518); settings: for Residual enzyme activity CLK 1: 10 µM concentration, ± SEM
Protocol: Buffer A: 10 mM MgCl2, 1 mM EGTA, 1 mM DTT, 25 mM Tris-HCl pH 7.5, 50 μg heparin/mL. Buffer C: 60 mM β-glycerophosphate, 15 mM p-nitrophenylphosphate, 25 mM MOPS (pH 7.2), 15 mM EGTA, 15 mM MgCl2, 1 mM DTT, 1 mM sodium vanadate, 1 mM phenylphosphate.
Controls were performed with appropriate dilutions of DMSO. The GS-1, CKS, CDK7/9 tide and RS peptide substrates were obtained from Proteogenix (Oberhausbergen, France).
CDK1/cyclin B (M phase starfish oocytes, native), CDK2/cyclin A and CDK5/p25 (human, recombinant) were prepared as previously described [33]. […] ATP (3,000 Ci/mmol; 10 mCi/mL) in a final volume of 30 μL. After 30 min incubation at 30°C, the reaction was stopped by harvesting onto P81 phosphocellulose supernatant (Whatman) using a FilterMate harvester (Packard) and washing in 1% phosphoric acid. Scintillation fluid was added and the radioactivity measured in a Packard counter.
(§1) All data points for construction of dose response curves were recorded in triplicate.

CK1δ/ε = format: biochemical, porcine; settings: for IC50: 15 μmol/L ATP, read-out: IC50 CK1; for Residual enzyme activity CK1: 10 µM concentration, ± SEM
DYRK2 = molecular target: T2, DYRK2 (Homo sapiens, UniProt Q92630); format: biochemical; settings: for IC50: 15 μmol/L ATP, read-out: IC50 DYRK 2; for Residual enzyme activity DYRK 2: 10 µM concentration, ± SEM
T2 sequence (Q92630 1-601): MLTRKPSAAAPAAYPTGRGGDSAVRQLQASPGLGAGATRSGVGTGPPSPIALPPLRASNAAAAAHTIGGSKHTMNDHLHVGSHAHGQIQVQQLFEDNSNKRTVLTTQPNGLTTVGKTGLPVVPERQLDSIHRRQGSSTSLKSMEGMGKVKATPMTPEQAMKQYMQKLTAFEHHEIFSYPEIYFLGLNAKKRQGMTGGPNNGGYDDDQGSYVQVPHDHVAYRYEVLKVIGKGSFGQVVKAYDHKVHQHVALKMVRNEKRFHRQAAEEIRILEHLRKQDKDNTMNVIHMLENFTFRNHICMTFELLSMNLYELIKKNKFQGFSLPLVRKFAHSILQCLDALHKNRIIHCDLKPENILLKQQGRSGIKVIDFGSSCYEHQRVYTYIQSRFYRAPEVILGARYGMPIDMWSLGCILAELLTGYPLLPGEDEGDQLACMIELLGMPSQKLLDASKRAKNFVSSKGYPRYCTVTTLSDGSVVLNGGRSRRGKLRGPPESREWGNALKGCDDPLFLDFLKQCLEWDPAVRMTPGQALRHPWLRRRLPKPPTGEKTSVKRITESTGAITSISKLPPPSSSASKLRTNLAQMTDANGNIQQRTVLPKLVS

CLK2 = CLK2 (Mus musculus, UniProt O35491); settings: for Residual enzyme activity CLK 2: 10 µM concentration, ± SEM
DYRK3 = molecular target: T3, DYRK3 (Homo sapiens, UniProt O43781); format: biochemical; settings: for IC50: 15 μmol/L ATP, read-out: IC50 DYRK 3; for Residual enzyme activity DYRK 3: 10 µM concentration, ± SEM
T3 sequence (O43781 1-588): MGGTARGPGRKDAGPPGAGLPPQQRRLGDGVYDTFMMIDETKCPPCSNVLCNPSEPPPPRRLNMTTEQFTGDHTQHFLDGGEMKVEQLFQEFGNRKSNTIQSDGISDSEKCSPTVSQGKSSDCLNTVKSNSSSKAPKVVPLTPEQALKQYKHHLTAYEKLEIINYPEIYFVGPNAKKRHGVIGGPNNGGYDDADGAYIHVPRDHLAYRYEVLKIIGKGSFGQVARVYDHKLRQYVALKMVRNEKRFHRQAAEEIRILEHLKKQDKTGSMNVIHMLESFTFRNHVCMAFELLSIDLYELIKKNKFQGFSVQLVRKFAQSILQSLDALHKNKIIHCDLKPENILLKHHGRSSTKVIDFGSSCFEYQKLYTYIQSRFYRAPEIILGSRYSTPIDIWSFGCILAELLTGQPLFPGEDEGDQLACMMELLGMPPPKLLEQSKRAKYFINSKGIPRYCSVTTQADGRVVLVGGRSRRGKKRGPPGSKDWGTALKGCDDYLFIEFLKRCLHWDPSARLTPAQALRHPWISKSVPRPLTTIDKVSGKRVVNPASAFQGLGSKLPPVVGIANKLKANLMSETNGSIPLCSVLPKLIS

CDK2/cyclin A = molecular target: T4, CDK2/cyclin A (Homo sapiens, UniProt P24941); format: biochemical; settings: for IC50: 15 μmol/L ATP, read-out: IC50 CDK2/cyclinA; for Residual enzyme activity CDK2/cyclin A: 10 µM concentration, ± SEM
T4 construct: made in house

CLK4 = CLK4 (Mus musculus, UniProt O35493); settings: for Residual enzyme activity CLK 4: 10 µM concentration, ± SEM
Protocol: Buffers. Buffer A: 10 mM MgCl2, 1 mM EGTA, 1 mM DTT, 25 mM Tris-HCl pH 7.5, 50 μg heparin/mL. Buffer C: 60 mM β-glycerophosphate, 15 mM p-nitrophenylphosphate, 25 mM MOPS (pH 7.2), 15 mM EGTA, 15 mM MgCl2, 1 mM DTT, 1 mM sodium vanadate, 1 mM phenylphosphate.
Kinase activities were assayed in buffer A or C at 30°C at a final ATP concentration of 15 μmol/L. Blank values were subtracted and activities were expressed in percent of the maximal activity, i.e. in the absence of inhibitors. Controls were performed with appropriate dilutions of DMSO.
Their kinase activity was assayed in buffer A, with 1 mg histone H1/mL, in the presence of 15 μmol/L [γ-33P] ATP (3,000 Ci/mmol; 10 mCi/mL) in a final volume of 30 μL. After 30 min incubation at 30°C, the reaction was stopped by harvesting onto P81 phosphocellulose supernatant (Whatman) using a FilterMate harvester (Packard) and washing in 1% phosphoric acid. Scintillation fluid was added and the radioactivity measured in a Packard counter.
as §1

CDK1/cyclin B = format: biochemical, starfish; settings: for IC50: 15 μmol/L ATP; for Residual enzyme activity CDK1/cyclin B: 10 µM concentration, ± SEM
GSK-3 = format: biochemical, porcine; settings: for IC50: 15 μmol/L ATP, read-out: IC50 GSK3; for Residual enzyme activity GSK3: 10 µM concentration, ± SEM
DYRK1B = DYRK1B (Homo sapiens, UniProt Q9Y463); format: biochemical; settings: for IC50: 15 μmol/L ATP, read-out: IC50 DYRK 1B; for Residual enzyme activity DYRK 1B: 10 µM concentration, ± SEM
CLK3 = CLK3 (Mus musculus, UniProt O35492); settings: for Residual enzyme activity CLK 3: 10 µM concentration, ± SEM
CDK9/cyclin T = CDK9/cyclin T (Homo sapiens, UniProt P50750); settings: for Residual enzyme activity CDK9/cyclin T: 10 µM concentration, ± SEM
DYRK1A = DYRK1A (Homo sapiens, UniProt Q13627); format: biochemical; settings: for IC50: 15 μmol/L ATP, read-out: IC50 DYRK 1A; for Residual enzyme activity DYRK 1A: 10 µM concentration, ± SEM

Sequence of DYRK1B (Q9Y463 whole entry): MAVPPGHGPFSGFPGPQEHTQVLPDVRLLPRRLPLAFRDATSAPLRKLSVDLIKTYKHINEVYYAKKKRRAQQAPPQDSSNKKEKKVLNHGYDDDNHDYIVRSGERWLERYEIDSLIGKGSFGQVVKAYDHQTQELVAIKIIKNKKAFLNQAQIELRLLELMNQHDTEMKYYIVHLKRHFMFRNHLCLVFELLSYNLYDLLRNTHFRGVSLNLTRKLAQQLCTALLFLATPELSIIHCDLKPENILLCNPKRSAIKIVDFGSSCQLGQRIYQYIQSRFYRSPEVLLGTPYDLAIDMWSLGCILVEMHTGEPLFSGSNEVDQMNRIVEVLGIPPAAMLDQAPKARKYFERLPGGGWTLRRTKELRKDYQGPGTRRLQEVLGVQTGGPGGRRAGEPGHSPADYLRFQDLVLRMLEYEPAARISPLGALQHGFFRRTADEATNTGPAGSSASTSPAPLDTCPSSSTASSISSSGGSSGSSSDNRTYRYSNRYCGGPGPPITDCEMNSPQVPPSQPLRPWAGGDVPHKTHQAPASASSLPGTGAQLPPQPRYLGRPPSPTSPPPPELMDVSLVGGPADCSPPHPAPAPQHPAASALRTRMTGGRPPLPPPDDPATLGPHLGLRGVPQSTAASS
Sequence of CLK4 (O35493 whole entry): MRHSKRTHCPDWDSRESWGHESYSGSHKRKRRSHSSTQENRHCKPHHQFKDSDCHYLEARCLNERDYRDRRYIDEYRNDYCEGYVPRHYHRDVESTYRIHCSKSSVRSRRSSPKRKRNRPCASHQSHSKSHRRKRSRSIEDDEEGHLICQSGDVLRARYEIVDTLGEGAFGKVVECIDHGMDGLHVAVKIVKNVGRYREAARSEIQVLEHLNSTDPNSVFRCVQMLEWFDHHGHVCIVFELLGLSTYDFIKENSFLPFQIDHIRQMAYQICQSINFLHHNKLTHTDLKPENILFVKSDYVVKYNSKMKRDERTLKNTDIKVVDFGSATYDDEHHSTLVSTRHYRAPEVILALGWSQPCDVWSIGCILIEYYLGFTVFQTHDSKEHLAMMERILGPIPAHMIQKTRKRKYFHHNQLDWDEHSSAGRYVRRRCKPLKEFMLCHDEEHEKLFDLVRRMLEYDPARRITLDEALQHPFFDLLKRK
Sequence of CLK2 (O35491 whole entry): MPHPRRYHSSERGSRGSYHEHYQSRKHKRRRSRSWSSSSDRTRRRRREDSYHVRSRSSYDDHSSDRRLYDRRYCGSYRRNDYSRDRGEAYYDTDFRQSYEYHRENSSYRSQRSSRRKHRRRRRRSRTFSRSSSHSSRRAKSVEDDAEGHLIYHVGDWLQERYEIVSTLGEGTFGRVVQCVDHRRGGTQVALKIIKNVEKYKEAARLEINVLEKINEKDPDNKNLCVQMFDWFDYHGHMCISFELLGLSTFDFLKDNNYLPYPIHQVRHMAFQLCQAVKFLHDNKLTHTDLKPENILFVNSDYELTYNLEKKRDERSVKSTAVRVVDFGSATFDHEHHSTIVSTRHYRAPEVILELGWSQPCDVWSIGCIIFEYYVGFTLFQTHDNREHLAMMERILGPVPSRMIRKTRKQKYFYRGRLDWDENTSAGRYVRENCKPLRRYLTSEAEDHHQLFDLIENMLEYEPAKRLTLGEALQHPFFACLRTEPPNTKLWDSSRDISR
Sequence of CDK9/cyclin T (P50750 whole entry): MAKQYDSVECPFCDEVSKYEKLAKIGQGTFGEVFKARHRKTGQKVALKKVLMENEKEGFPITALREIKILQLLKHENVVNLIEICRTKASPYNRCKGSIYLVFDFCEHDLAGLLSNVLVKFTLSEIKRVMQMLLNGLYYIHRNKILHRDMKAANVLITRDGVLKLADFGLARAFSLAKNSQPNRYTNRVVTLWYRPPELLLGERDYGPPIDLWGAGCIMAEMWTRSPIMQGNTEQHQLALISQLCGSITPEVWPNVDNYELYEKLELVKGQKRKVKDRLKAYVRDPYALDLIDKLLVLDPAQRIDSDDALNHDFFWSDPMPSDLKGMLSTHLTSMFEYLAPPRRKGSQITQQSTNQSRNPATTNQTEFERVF
Sequence of CDK9/cyclin T (O60563 whole entry partner): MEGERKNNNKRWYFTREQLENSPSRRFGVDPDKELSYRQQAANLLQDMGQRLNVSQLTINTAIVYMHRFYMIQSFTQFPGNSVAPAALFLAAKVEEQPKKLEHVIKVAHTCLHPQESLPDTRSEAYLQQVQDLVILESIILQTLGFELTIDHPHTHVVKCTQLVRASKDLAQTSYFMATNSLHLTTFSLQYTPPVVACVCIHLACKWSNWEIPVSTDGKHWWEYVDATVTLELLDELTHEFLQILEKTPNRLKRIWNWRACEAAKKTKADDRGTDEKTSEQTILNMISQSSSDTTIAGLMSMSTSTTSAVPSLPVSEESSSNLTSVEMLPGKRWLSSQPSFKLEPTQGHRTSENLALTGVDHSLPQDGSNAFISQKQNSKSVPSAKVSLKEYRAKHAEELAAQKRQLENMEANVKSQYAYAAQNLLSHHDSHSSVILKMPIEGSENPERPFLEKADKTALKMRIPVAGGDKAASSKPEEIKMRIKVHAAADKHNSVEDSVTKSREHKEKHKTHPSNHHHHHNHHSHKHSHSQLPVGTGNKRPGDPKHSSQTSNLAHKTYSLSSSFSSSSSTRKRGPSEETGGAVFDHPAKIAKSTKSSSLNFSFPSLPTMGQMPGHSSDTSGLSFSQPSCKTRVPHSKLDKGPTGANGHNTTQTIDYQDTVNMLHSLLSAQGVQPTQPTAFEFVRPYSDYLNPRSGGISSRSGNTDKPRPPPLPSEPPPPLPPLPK
Sequence of CLK3 (O35492 whole entry): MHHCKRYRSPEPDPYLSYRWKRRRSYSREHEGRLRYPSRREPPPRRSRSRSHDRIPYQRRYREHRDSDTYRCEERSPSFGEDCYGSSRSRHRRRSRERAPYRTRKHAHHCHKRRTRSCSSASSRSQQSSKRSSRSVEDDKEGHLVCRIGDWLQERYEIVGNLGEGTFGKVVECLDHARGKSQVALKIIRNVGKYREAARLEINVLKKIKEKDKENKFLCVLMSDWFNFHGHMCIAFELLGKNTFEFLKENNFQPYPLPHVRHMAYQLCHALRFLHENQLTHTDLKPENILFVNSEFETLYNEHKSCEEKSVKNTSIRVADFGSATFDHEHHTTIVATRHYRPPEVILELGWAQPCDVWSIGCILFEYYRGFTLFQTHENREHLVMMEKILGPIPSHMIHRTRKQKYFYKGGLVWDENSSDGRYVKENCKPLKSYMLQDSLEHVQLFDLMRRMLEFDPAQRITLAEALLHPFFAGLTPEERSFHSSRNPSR
T1 sequence (Q00535 whole entry): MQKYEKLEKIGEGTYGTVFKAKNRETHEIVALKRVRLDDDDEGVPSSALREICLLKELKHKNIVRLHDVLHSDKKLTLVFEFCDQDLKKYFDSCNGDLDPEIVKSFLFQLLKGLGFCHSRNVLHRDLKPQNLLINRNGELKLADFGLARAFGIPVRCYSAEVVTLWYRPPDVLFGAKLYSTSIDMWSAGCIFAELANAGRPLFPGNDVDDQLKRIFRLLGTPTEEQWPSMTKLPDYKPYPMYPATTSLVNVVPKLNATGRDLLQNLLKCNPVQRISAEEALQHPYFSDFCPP
T1 sequence (Q15078 99-307 partner limits assumed): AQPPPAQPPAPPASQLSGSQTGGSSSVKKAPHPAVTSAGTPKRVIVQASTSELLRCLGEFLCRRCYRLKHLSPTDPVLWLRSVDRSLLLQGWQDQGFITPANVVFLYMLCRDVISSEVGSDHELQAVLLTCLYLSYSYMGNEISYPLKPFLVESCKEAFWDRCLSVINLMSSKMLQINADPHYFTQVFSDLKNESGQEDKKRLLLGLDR
Sequence of CLK1 (P22518 whole entry): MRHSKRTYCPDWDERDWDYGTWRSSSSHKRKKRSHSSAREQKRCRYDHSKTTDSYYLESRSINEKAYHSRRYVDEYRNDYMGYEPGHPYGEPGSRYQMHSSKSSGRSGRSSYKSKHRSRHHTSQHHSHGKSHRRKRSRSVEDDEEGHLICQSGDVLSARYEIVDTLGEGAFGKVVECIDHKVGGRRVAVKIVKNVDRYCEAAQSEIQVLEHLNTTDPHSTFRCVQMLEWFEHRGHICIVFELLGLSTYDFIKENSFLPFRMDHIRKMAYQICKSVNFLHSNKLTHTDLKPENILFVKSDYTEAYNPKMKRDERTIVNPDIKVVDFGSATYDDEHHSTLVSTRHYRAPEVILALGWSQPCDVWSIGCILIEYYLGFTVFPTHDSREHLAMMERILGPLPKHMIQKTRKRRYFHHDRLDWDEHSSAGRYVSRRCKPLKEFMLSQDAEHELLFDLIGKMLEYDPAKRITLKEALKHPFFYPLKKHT

For O=C1NCc2ccc3c(-c4ccc(Cl)cc4)c[nH]c3c21 [8d, 3-(4-Chlorophenyl)-6,7-dihydropyrrolo[3,4-g]indol-8(1H)-one], the IC50 (CDK5/p25) was > 10000 nM, the IC50 (CLK1) was 100 nM and the IC50 (CK1δ/ε) was > 10000 nM. For the same molecule, the IC50 (DYRK2) was 9300 nM, the IC50 (CLK2) was 170 nM and the IC50 (DYRK3) was > 10000 nM. The IC50 (CDK2/cyclin A) was > 10000 nM, the IC50 (CLK4) was 130 nM and the IC50 (CDK1/cyclin B) was > 10000 nM. For the same molecule, the IC50 (GSK-3) was > 10000 nM, the IC50 (DYRK1B) was > 10000 nM and the IC50 (CLK3) was 1800 nM. The IC50 (CDK9/cyclin T) was > 10000 nM and the IC50 (DYRK1A) was > 10000 nM.
With Cc1ccc(-c2[nH]c3c4c(ccc3c2C)CNC4=O)cc1 [S18e] the “Residual enzyme activity CDK5/p25” value (CDK5/p25) was 114±11%, the “Residual enzyme activity CLK 1” value (CLK1) was 105±12% and the “Residual enzyme activity CK1” value (CK1δ/ε) was 84±7%. The “Residual enzyme activity DYRK 2” value (DYRK2) was 75±11%, the “Residual enzyme activity CLK 2” value (CLK2) was 77±6% and the “Residual enzyme activity DYRK 3” value (DYRK3) was 92±9%. The “Residual enzyme activity CDK2/cyclin A” value (CDK2/cyclin A) was 102±9%, the “Residual enzyme activity CLK 4” value (CLK4) was 64±9% and the “Residual enzyme activity CDK1/cyclin B” value (CDK1/cyclin B) was 100±20%. The “Residual enzyme activity GSK3” value (GSK-3) was 120±31%, the “Residual enzyme activity DYRK 1B” value (DYRK1B) was 85±7% and the “Residual enzyme activity CLK 3” value (CLK3) was 105±10%. For the same molecule, the “Residual enzyme activity CDK9/cyclin T” value (CDK9/cyclin T) was 101±3% and the “Residual enzyme activity DYRK 1A” value (DYRK1A) was 99±16%.
With O=C1NCc2ccc3c(-c4ccccc4)c(Br)[nH]c3c21 [compound 16, 2-Bromo-3-phenyl-6,7-dihydropyrrolo[3,4-g]indol-8(1H)-one] the IC50 (CDK5/p25) was > 10000 nM, the IC50 (CLK1) was 110 nM and the IC50 (CK1δ/ε) was > 10000 nM. It also gave an IC50 (DYRK2) of 1800 nM, an IC50 (CLK2) of 110 nM and an IC50 (DYRK3) of 3900 nM. For the same molecule, the IC50 (CDK2/cyclin A) was > 10000 nM, the IC50 (CLK4) was 29 nM and the IC50 (CDK1/cyclin B) was > 10000 nM. For the same molecule, the IC50 (GSK-3) was > 10000 nM, the IC50 (DYRK1B) was 1300 nM and the IC50 (CLK3) was 2800 nM. The IC50 (CDK9/cyclin T) was > 10000 nM and the IC50 (DYRK1A) was 1900 nM.
For CCc1[nH]c2c3c(ccc2c1C)CNC3=O [S18a], the “Residual enzyme activity CDK5/p25” value (CDK5/p25) was 100±9%, the “Residual enzyme activity CLK 1” value (CLK1) was 20±2% and the “Residual enzyme activity CK1” value (CK1δ/ε) was 50±6%. For the same molecule, the “Residual enzyme activity DYRK 2” value (DYRK2) was 42±12%, the “Residual enzyme activity CLK 2” value (CLK2) was 31±4% and the “Residual enzyme activity DYRK 3” value (DYRK3) was 65±9%. The “Residual enzyme activity CDK2/cyclin A” value (CDK2/cyclin A) was 99±8%, the “Residual enzyme activity CLK 4” value (CLK4) was 7±2% and the “Residual enzyme activity CDK1/cyclin B” value (CDK1/cyclin B) was 94±13%. The “Residual enzyme activity GSK3” value (GSK-3) was 97±3%, the “Residual enzyme activity DYRK 1B” value (DYRK1B) was 46±8% and the “Residual enzyme activity CLK 3” value (CLK3) was 92±12%. For the same molecule, the “Residual enzyme activity CDK9/cyclin T” value (CDK9/cyclin T) was 93±5% and the “Residual enzyme activity DYRK 1A” value (DYRK1A) was 54±1%.
Molecule O=C1NCc2c(Br)cc3c(-c4ccccc4)c[nH]c3c21 [12a, 5-Bromo-3-phenyl-6,7-dihydropyrrolo[3,4-g]indol-8(1H)-one] has an IC50 (CDK5/p25) of 5300 nM, an IC50 (CLK1) of 43 nM and an IC50 (CK1δ/ε) of 1700 nM. For the same molecule, the IC50 (CDK2/cyclin A) was > 10000 nM, the IC50 (CDK1/cyclin B) was 2800 nM and the IC50 (GSK-3) was > 10000 nM. The IC50 (CDK9/cyclin T) was > 10000 nM and the IC50 (DYRK1A) was 200 nM.
CCc1[nH]c2c3c(ccc2c1-c1ccccc1)CNC3=O [8l, 2-Ethyl-3-phenyl-6,7-dihydropyrrolo[3,4-g]indol-8(1H)-one] was tested, and the IC50 (CDK5/p25) was > 10000 nM, the IC50 (CLK1) was 120 nM and the IC50 (CK1δ/ε) was 6100 nM. The IC50 (CDK2/cyclin A) was > 10000 nM, the IC50 (CDK1/cyclin B) was > 10000 nM and the IC50 (GSK-3) was > 10000 nM. The IC50 (CDK9/cyclin T) was > 10000 nM and the IC50 (DYRK1A) was 810 nM.
In the case of O=C1NCc2c(Cl)cc3c(-c4ccccc4)c[nH]c3c21 [12c, 5-Chloro-3-phenyl-6,7-dihydropyrrolo[3,4-g]indol-8(1H)-one], the IC50 (CDK5/p25) is reported as > 10000 nM, the IC50 (CLK1) is reported as 380 nM and the IC50 (CK1δ/ε) is reported as > 10000 nM. For the same molecule, the IC50 (DYRK2) was 2300 nM, the IC50 (CLK2) was 33 nM and the IC50 (DYRK3) was > 10000 nM. The IC50 (CDK2/cyclin A) was > 10000 nM, the IC50 (CLK4) was 300 nM and the IC50 (GSK-3) was > 10000 nM. For the same molecule, the IC50 (DYRK1B) was 1800 nM, the IC50 (CLK3) was 2200 nM and the IC50 (CDK9/cyclin T) was > 10000 nM. It also gave an IC50 (DYRK1A) of 320 nM.
With Cc1[nH]c2c3c(ccc2c1-c1ccccc1)CNC3=O [8k, 2-Methyl-3-phenyl-6,7-dihydropyrrolo[3,4-g]indol-8(1H)-one] the IC50 (CDK5/p25) was > 10000 nM, the IC50 (CLK1) was 93 nM and the IC50 (CK1δ/ε) was > 10000 nM. For the same molecule, the IC50 (CDK2/cyclin A) was > 10000 nM, the IC50 (CDK1/cyclin B) was > 10000 nM and the IC50 (GSK-3) was > 10000 nM. For the same molecule, the IC50 (CDK9/cyclin T) was > 10000 nM and the IC50 (DYRK1A) was 1500 nM.
